According to PubChem BioAssay (NCI):
“And” between values parts separate entries of the source, which are not always exact repeats. Equal entries are not always repeated.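 Tested at 5 concentrations; 48 h exposure; 96-well plates; endpoints linearly interpolated, else capped at highest concentration. GI50: concentration for 50% inhibition of growth. TGI marks complete inhibition of growth.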

Experiments:
Experiment in all cases: inhibition of tumour cell growth, NCI panel, 48 h
[1] = system: CAKI-1 renal
[2] = system: DU-145 prostate
[3] = system: IGROV1 ovarian
[4] = system: MDA-MB-435
[5] = system: SF-268 CNS
[6] = system: SF-295 CNS
[7] = system: SK-OV-3 ovarian
[8] = system: SNB-19 CNS
[9] = system: SW-620 colon
[10] = system: U251 CNS

| Structure (SMILES) | TGI [1] | TGI [2] [µM] | TGI [3] [µM] | TGI [4] [µM] | TGI [5] [µM] | TGI [6] | TGI [7] [µM] | TGI [8] [µM] | TGI [9] [µM] | TGI [10] [µM] | GI50 [1] | GI50 [2] | GI50 [3] | GI50 [4] | GI50 [5] | GI50 [6] [nM] | GI50 [7] [µM] | GI50 [8] | GI50 [9] | GI50 [10] |
| --- | --- | --- | --- | --- | --- | --- | --- | --- | --- | --- | --- | --- | --- | --- | --- | --- | --- | --- | --- | --- |
| O=[N+]([O-])c1cc(Cc2cc([N+](=O)[O-])c3cccnc3c2O)c(O)c2ncccc12 | 41.3 µM | 54 | 17.2 | 32.7 | > 43.8 | 37.2 µM | 37.5 | 51.2 | > 67.9 | 19.1 | – | – | – | – | – | – | – | – | – | – |
| N#Cc1c(NC(=O)c2ccccc2F)sc2c1CCCC2 | > 25 µM | > 25 | > 25 | > 12.1 | > 25 | > 25 µM | > 25 | > 25 | > 25 | > 25 | > 19.4 µM | > 25 µM | > 25 µM | 1.31 µM | > 25 µM | > 25000 | > 25 | > 25 µM | 8.77 µM | > 25 µM |
| S=C(NCc1ccc2c(c1)OCO2)N1CCN(c2ncnc3c2oc2ccccc23)CC1 | > 100 µM | > 100 | > 100 | > 100 | > 100 | > 100 µM | > 100 | > 100 | > 100 | > 100 | 5.93 µM | > 100 µM | > 100 µM | 8.16 µM | > 100 µM | 5380 | > 100 | > 100 µM | > 100 µM | 27.2 µM |
| O=c1[nH]c(=S)[nH]c(-c2ccccc2)c1Cc1c(O)ccc2ccccc12 | > 100 µM | > 100 | > 100 | 93 | > 100 | > 100 µM | > 100 | > 100 | > 100 | > 100 | – | – | – | – | – | – | – | – | – | – |
| COc1ccc(OC)c(Cc2cnc3nc(N)nc(N)c3c2C)c1 | > 81.9 µM | > 59.8 | 2.61 | > 49 | > 71.2 | 41.9 µM | 27.2 | 55.4 | > 45.1 | > 44.1 | – | – | – | – | – | – | – | – | – | – |
| O=C(c1cc(Cc2n[nH]c(=O)c3ccccc23)ccc1F)N1CCN(C(=O)C2CC2)CC1 | 48.1 µM and > 100 µM | > 100 | > 100 | > 100 | > 100 | 23.4 µM and > 100 µM | > 100 | > 100 | > 100 | > 100 | 16.5 µM and 54.5 µM | 33.5 µM and > 100 µM | 56.8 µM and 68.3 µM | 58 µM and 97.6 µM | 53.2 µM and 59.6 µM | – | > 100 | 80.5 µM and > 85.1 µM | 64.4 µM and > 94.1 µM | 35.1 µM and 31.5 µM |
| c1ccc(C2CCCCC2)c(OCCCCCN2CCNCC2)c1 | 10.9 µM | 16.2 | 12.6 | 3.3 | 21.4 | 6.04 µM | 21.8 | 14.4 | 3.8 | 4.2 | 2.81 µM | 4.17 µM | 2.77 µM | 1.69 µM | 5.14 µM | 2360 | 6.51 | 3.49 µM | 1.82 µM | 1.82 µM |
| Cc1cc(O)c2c3c(ccc2c1)C(=O)c1c(O)cccc1C3=O | > 100 µM | > 100 | > 20.3 | 0.341 | > 45 | > 100 µM | > 100 | > 100 | > 100 | > 100 | – | – | – | – | – | – | – | – | – | – |
| COc1cc(C(=O)/C=C/c2c(C(F)(F)F)nc3ccccn23)cc(OC)c1OC | 4.44 µM | 3.51 | 6.02 | 8.76 | 3.52 | 3.92 µM | 19 | 3.85 | 4.24 | 3.31 | 1.82 µM | 1.61 µM | 2.23 µM | 2.26 µM | 1.64 µM | 1990 | 4.04 | 1.93 µM | 1.68 µM | 1.29 µM |
| COCCOCCOCCOCCOC(=O)OC[n+]1ccc(NC(=NCCCCCCOc2ccc(Cl)cc2)NC#N)cc1 | 20.5 µM | 18.2 | 24.7 | 14.7 | 26.9 | 12.5 µM | 23.6 | 18.3 | 16.3 | 18.7 | 3.3 µM | 0.0616 µM | 0.465 µM | < 0.01 µM | 11.9 µM | < 41.8 | 11.3 | 0.199 µM | < 0.01 µM | – |
| N#C/C(=C\c1cc2ccc(N3CCC3)cc2oc1=O)C(=O)N(CC(=O)O)CC(=O)O | > 100 µM | > 100 | > 100 | > 100 | > 100 | > 100 µM | > 100 | > 100 | > 100 | > 100 | > 100 µM | > 100 µM | > 100 µM | > 100 µM | > 100 µM | > 100000 | > 100 | > 100 µM | > 100 µM | > 100 µM |
